Laboratory results: ChEMBL document CHEMBL1201862, “PubChem BioAssay data set” (2004)
The source made the active and inactive calls.

Key:
[1] = target: T1, Rac GTPase-activating protein 1 (Homo sapiens, UniProt Q9H0H5); assay: blockers of MgcRacGAP-driven Rac1 GTP hydrolysis – biochemical, ADP Hunter fluorescence, primary and confirmatory, confirmation (AID 624330); type: functional
T1 sequence (Q9H0H5 whole entry): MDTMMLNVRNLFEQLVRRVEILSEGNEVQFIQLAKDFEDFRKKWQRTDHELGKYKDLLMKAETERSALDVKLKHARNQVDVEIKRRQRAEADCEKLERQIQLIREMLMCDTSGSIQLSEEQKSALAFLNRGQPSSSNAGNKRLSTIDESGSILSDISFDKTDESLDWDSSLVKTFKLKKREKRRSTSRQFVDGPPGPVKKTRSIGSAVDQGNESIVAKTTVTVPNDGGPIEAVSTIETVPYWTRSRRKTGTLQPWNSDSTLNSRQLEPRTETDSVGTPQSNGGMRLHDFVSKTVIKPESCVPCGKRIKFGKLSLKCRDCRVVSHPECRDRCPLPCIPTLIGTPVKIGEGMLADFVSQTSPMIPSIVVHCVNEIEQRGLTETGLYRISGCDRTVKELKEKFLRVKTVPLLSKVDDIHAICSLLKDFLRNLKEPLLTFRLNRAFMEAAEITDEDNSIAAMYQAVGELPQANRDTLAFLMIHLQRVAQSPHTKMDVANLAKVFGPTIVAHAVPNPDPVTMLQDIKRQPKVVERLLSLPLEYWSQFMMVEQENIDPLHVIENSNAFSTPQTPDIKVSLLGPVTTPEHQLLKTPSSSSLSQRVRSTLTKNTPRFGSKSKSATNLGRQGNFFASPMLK

[2] = viability loss of HMLE_sh_eGFP cells – cell-based, luminescence, counter-screen for HMLE_sh_ECad selective toxicity project, dose response (AID 463074); type: functional, Homo sapiens;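 further: HMLE human mammary epithelial cells expressing control shRNA against eGFP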
[3] = Luminescence Cell-Based Dose Retest to Confirm Inhibitors of Cancer Stem Cells. [Related pubchem assays (depositor defined):AID2717, AID2721]; type: functional, Homo sapiens; details: Homo sapiens
[4] = bead-based luminescence quenchers, dual-tagged ARNT – biochemical, AlphaScreen, cherry-pick, artefact control for ARNT-TACC3 interaction inhibitor project, dose response (AID 651705); type: functional;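 further: AlphaScreen bead proximity signal that flags compounds interfering with the detection technology; potency reflects signal decrease which marks the compound as an assay artifact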
Nonstructural protein 1 = Nonstructural protein 1 (Influenza A virus, UniProt Q194T2); type: functional, Influenza A virus (A/California/07/2009(H1N1))
Nonstructural protein 1, sequence (Q194T2 whole entry): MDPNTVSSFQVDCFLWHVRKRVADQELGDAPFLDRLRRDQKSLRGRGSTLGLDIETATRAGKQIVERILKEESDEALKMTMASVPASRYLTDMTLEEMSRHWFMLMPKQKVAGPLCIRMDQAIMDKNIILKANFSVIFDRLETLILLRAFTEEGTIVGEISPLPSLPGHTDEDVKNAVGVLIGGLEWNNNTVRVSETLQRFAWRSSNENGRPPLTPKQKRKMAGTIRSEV

Exodeoxyribonuclease V = Exodeoxyribonuclease V (Escherichia coli (strain K12), UniProt P04993+P07648+P08394); assay: RecBCD inhibition via phage-restricted bacterial growth – absorbance, V66 E. coli, mutant T4 phage, counter-screen for AddAB inhibitor project, dose response (AID 492957); type: functional, cell-based, Escherichia coli str. K-12 substr. MG1655
Exodeoxyribonuclease V, sequence (P04993 whole entry): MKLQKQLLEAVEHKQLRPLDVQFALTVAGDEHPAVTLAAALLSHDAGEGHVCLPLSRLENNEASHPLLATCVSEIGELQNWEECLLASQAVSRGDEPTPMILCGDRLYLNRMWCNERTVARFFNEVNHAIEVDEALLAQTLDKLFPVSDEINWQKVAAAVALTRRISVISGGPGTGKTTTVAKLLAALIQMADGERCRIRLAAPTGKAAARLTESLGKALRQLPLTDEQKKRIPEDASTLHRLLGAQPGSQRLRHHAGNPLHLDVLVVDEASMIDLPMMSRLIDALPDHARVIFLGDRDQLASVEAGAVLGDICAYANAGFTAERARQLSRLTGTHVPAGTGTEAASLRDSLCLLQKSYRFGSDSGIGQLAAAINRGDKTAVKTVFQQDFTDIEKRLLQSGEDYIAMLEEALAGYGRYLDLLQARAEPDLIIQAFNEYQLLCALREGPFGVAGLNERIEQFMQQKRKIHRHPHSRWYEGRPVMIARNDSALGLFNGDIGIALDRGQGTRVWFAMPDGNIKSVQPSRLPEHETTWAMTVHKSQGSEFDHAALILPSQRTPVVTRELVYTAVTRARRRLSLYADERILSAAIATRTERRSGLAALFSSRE
Exodeoxyribonuclease V, sequence (P07648 whole entry): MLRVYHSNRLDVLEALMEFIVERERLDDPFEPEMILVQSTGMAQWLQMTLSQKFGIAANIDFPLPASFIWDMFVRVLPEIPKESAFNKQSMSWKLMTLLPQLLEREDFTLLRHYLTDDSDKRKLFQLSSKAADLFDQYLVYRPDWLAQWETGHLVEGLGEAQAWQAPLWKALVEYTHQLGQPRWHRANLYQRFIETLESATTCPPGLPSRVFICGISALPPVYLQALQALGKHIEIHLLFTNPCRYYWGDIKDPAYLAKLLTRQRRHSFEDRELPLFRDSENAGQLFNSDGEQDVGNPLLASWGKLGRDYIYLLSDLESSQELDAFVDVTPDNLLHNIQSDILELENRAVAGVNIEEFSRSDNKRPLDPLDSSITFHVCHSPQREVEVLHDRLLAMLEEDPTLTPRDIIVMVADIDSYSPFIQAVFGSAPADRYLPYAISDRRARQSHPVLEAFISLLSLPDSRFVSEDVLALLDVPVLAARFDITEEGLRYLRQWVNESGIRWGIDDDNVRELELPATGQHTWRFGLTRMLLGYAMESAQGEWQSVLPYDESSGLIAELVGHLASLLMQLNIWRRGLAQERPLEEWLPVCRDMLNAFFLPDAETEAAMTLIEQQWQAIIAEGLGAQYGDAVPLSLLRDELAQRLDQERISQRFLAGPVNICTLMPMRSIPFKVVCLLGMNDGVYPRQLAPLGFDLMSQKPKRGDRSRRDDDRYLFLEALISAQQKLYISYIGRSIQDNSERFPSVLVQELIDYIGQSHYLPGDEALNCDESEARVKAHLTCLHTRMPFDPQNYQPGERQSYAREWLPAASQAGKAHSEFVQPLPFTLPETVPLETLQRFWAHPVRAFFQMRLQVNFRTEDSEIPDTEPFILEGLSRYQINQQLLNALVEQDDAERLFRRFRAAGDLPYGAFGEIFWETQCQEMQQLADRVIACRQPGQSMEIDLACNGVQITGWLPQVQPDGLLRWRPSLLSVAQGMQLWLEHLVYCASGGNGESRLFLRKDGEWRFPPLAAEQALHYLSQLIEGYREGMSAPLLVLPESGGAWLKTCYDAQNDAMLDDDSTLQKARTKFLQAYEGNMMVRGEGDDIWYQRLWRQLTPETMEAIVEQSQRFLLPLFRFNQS
Exodeoxyribonuclease V, sequence (P08394 whole entry): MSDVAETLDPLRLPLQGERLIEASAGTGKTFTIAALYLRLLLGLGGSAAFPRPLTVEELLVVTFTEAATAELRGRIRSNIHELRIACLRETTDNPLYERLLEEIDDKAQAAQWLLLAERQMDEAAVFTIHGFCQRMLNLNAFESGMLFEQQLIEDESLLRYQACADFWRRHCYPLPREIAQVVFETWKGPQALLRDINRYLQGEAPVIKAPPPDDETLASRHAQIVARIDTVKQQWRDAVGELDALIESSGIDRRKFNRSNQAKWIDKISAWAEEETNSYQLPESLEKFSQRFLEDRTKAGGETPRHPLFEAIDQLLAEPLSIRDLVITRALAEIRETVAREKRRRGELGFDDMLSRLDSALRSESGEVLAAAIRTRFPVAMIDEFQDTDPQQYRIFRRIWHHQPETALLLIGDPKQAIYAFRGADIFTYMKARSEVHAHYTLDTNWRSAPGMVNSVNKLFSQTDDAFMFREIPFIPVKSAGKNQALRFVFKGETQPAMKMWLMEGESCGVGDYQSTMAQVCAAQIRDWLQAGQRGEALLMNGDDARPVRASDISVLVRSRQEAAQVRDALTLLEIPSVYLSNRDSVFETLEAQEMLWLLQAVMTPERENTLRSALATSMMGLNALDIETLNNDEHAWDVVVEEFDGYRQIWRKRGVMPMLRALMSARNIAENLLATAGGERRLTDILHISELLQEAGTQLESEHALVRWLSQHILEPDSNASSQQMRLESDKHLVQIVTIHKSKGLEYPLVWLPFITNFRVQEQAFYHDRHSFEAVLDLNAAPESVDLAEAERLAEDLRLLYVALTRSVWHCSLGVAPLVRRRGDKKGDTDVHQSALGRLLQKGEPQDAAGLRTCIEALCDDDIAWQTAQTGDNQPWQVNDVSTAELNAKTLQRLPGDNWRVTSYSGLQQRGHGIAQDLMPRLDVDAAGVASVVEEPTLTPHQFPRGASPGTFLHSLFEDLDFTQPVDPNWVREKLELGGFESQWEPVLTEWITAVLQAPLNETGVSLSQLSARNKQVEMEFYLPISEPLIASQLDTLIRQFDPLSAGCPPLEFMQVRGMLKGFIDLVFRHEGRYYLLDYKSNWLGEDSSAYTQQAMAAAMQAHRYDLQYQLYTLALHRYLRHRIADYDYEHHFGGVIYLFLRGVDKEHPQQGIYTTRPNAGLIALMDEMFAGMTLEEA

[5] = Counterscreen for AddAB inhibitors: absorbance-based bacterial cell-based high throughput dose response assay for inhibitors of bacterial viability. [Related pubchem assays (depositor defined):AID435030, AID449728, AID449731, AID488942, AID488955, AID488956]; type: functional
[6] = HGIII-sPLA2 enzyme inhibition potency – biochemical, QFRET, IC50, dose response (AID 743457);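 further: green fluorescence rise as the enzyme cleaves BODIPY PC-A2 in liposomes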
[7] = viability of PTEN-deleted HCT116 cells – cell-based, HCT116 PTEN knockout, dose response (AID 1047); type: functional;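 further: HCT116 colon tumor cells with PTEN knocked out; cells exposed to compound for 60 hours before readout; potency for loss of cell viability measured by luminescence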
Vero [8] = assay: cells; type: functional; details: Chlorocebus sabaeus
[9] = viability of HCT116 lacking mutant beta-catenin – cell-based, human colon tumor, dose response (AID 1045); type: functional;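 further: HCT116 colon tumor cells with beta catenin knocked out; cells exposed to compound for 60 hours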
Vero [10] = assay: cells; type: functional, cell-based; details: Chlorocebus sabaeus
Escherichia coli [11] = assay: microbe, parasite or virus in culture
[12] = target: T2, Ubiquitin-conjugating enzyme E2 N (Homo sapiens, UniProt P61088); type: functional
T2 sequence (P61088 whole entry): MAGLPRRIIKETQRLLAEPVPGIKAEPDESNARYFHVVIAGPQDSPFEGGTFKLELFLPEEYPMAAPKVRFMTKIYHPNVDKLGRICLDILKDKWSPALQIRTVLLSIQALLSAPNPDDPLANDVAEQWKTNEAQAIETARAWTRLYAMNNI

Bcl-2-related protein A1 = Bcl-2-related protein A1 (Mus musculus, UniProt Q07440); type: functional;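 further: confirmatory dose–response counterscreen on Bfl-1, used to check hits from a UBC13 polyubiquitin inhibitor campaign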
Bcl-2-related protein A1, sequence (Q07440 whole entry): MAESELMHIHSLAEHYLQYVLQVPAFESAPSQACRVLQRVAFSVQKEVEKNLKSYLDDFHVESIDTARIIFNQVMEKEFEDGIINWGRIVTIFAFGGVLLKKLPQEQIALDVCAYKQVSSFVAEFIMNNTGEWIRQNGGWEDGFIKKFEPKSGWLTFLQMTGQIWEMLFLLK

[13] = target: T2, Ubiquitin-conjugating enzyme E2 N; type: functional; remark: listed apart in the source
[14] = target: T3, DNA repair protein RAD52 homolog (Homo sapiens, UniProt P43351); type: functional, biochemical
T3 sequence (P43351 whole entry): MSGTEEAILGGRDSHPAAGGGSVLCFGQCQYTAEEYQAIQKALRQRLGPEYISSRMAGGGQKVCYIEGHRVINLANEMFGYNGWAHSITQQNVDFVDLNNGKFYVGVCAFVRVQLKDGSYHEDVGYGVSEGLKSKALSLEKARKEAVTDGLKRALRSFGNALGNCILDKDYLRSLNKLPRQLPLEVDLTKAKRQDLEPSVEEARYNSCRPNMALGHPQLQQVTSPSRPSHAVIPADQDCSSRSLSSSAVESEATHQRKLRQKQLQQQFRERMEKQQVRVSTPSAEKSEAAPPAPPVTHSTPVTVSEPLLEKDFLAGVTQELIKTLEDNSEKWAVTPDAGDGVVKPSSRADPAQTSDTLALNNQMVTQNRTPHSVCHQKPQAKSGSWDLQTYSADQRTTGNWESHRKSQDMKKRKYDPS

[15] = viability loss in human Jurkat cells – cell-based, luminescence, cytotoxicity control for P. falciparum gametocyte viability project, dose response (AID 1117277); type: functional;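 further: potency reflects loss of cellular ATP meaning fewer viable cells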
[16] = target: T4, Tyrosine-protein phosphatase non-receptor type 7 (Homo sapiens, UniProt P35236); type: functional
T4 sequence (P35236 whole entry): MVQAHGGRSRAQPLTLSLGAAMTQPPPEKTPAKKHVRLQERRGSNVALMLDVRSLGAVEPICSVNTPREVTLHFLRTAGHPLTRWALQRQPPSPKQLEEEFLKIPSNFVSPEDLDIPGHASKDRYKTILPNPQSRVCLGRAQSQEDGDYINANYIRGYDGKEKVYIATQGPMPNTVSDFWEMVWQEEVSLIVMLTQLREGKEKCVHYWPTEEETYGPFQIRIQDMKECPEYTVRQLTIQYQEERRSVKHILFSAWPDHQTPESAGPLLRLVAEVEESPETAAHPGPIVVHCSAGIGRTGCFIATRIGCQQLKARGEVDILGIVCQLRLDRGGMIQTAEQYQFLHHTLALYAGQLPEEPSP

[17] = viability inhibitors of stage V gametocytes – luminescence, dose response (AID 1117278); type: functional, cell-based;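 further: gametocytes exposed to compound for 24 hours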
[18] = target: T5, Tyrosine-protein phosphatase non-receptor type 22 (Homo sapiens, UniProt Q9Y2R2); type: functional
T5 sequence (Q9Y2R2 whole entry): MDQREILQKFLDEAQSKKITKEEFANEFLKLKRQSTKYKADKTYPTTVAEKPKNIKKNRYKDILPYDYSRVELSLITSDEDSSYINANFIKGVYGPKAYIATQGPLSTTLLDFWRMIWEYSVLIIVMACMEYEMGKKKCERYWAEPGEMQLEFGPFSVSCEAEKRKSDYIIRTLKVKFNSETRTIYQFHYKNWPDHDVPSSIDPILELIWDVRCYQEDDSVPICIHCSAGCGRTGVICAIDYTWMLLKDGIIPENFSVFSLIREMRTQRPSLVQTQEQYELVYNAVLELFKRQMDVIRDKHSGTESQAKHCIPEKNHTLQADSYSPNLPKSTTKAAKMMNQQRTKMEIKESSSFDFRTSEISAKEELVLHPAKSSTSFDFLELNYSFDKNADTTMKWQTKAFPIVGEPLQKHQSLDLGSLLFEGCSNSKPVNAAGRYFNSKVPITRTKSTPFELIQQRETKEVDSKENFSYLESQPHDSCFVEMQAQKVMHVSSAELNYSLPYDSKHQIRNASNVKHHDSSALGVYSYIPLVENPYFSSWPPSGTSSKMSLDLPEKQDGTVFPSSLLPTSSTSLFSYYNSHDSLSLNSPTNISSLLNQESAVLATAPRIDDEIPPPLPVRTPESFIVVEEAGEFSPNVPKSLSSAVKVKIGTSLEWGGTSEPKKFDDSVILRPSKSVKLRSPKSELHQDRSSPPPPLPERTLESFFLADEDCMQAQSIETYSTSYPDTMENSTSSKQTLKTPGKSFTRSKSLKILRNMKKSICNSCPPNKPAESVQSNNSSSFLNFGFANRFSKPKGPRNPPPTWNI

[19] = target: T5, Tyrosine-protein phosphatase non-receptor type 22; type: functional; remark: listed apart in the source
[20] = target: Peroxisome proliferator-activated receptor gamma/Nuclear receptor coactivator 2 (Homo sapiens, UniProt P37231); assay: TR-FRET dose response biochemical High Throughput Screening assay for agonists of the steroid receptor coactivator 2 (SRC-2) recruitment by the peroxisome proliferator-activated receptor gamma (PPAR gamma): non-selective agonists. [Related pubchem assays: 1297, 1032 ]; type: functional
[21] = target: Peroxisome proliferator-activated receptor gamma/Nuclear receptor coactivator 3 (Homo sapiens, UniProt P37231); assay: TR-FRET dose response biochemical High Throughput Screening assay for agonists of the steroid receptor coactivator 3 (SRC-3) recruitment by the peroxisome proliferator-activated receptor gamma (PPAR gamma): non-selective agonists. [Related pubchem assays: 1301 (Confirmation screen.), 1048 (Primary screen.)]; type: functional
[22] = target: Peroxisome proliferator-activated receptor gamma/Nuclear receptor coactivator 1 (Homo sapiens, UniProt P37231); assay: TR-FRET dose response biochemical High Throughput Screening assay for agonists of the steroid receptor coactivator 1 (SRC-1) recruitment by the peroxisome proliferator-activated receptor gamma (PPAR gamma): non-selective agonists. [Related pubchem assays (depositor defined):AID1300, AID1808, AID504735, AID631]; type: protein assay
INS1 = assay: INS-1E survival protection against cytokine death – cell-based, luminescence, retest, dose response (AID 449756); type: functional; details: Rattus norvegicus;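 further: cell death triggered by IL-1 beta plus TNF-alpha plus IFN-gamma mixture; protective hits raise ATP signal compared with cytokine alone wells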
[23] = target: Fructose-bisphosphate aldolase (Mycobacterium tuberculosis, UniProt P9WQA3); assay: Fluorescence-based biochemical high throughput dose response assay for inhibitors of the fructose-bisphosphate aldolase (FBA) of M. tuberculosis.; type: functional
Fructose-bisphosphate aldolase, sequence (P9WQA3 whole entry): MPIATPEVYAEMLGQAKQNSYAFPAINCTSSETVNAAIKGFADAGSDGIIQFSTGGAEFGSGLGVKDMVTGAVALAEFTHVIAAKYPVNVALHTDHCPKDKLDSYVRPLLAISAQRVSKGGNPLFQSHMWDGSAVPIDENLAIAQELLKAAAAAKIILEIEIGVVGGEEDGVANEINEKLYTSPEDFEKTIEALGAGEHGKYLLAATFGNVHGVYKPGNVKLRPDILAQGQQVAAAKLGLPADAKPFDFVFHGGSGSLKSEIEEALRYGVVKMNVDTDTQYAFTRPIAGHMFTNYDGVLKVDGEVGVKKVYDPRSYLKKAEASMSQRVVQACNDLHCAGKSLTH

[24] = target: Delta-type opioid receptor (Homo sapiens, UniProt P41143); assay: SAR Analysis of Agonists of the DOR Receptor using an Image-Based Assay - Set 3. [Related pubchem assays (depositor defined):AID1777, AID1786]; type: functional
Delta-type opioid receptor, sequence (P41143 whole entry): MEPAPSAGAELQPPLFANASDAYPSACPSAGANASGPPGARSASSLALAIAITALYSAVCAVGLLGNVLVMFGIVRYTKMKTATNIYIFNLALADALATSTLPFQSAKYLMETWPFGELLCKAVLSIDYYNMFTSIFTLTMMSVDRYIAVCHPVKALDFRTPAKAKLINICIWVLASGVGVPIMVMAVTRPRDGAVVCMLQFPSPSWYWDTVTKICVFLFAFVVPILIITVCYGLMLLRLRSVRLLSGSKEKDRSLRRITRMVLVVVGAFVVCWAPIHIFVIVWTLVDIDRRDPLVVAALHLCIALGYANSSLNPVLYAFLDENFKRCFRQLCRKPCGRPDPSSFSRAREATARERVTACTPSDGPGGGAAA

[25] = target: T6, Kappa-type opioid receptor (Homo sapiens, UniProt P41145); assay: SAR analysis of small molecule agonists of the kappa opioid receptor via a luminescent beta-arrestin assay - Set 3. [Related pubchem assays (depositor defined):AID1777, AID1785, AID1786, AID1966, AID2133, AID2136, AID2284, AID2500]; type: functional
T6 sequence (P41145 whole entry): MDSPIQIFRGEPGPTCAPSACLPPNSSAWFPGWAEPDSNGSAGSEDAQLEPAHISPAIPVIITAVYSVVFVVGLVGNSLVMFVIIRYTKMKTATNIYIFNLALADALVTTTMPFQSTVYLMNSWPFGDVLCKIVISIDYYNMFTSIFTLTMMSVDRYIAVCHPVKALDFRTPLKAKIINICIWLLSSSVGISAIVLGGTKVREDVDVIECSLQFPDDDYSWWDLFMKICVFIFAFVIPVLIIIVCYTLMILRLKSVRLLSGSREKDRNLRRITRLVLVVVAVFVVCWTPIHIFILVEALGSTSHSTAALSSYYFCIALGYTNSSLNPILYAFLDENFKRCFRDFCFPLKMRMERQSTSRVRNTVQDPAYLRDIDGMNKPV

Mu-type opioid receptor = Mu-type opioid receptor (Homo sapiens, UniProt P35372); assay: SAR Analysis of Agonists of the MOR Receptor using an Image-Based Assay - Set 3. [Related pubchem assays (depositor defined):AID1777, AID1785, AID1786, AID1966, AID2133, AID2136, AID2284, AID2285, AID2352]; type: functional
Mu-type opioid receptor, sequence (P35372 whole entry): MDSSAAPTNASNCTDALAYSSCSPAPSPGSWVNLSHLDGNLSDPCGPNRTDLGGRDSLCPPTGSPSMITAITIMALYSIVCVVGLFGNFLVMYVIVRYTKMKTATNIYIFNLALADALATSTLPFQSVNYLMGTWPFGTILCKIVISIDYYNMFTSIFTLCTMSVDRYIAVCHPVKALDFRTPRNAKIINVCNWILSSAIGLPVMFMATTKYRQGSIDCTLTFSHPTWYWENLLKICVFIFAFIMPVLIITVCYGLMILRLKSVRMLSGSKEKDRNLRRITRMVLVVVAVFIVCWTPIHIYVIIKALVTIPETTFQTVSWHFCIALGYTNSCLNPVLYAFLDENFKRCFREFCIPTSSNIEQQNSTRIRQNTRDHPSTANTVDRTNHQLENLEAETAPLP

[26] = target: T6, Kappa-type opioid receptor; assay: kappa opioid receptor activation by imaging – image-based, set 3, SAR follow-up (AID 488833); type: functional
Escherichia coli [27] = assay: microbe, parasite or virus in culture; remark: listed apart in the source

## O=C(Cn1cnc([N+](=O)[O-])n1)N/N=C/c1ccc(O)cc1O
[1]
  IC50: 107 µM (active)
[2]
  AC50: 20.8 µM (active)
[3]
  AC50: 19.3 µM (active)
[4]
  AC50: 102 µM (active)
Nonstructural protein 1
  IC50: 10.9 µM (active)

## O=C(OCC(=O)c1cccs1)c1ccc([N+](=O)[O-])o1
Exodeoxyribonuclease V
  IC50: > 119 µM (inactive)
[5]
  IC50: 92.6 µM (inactive)

## CCCCCOc1ccc(CSC(=N)N)cc1[N+](=O)[O-]
[6]
  IC50: > 122 µM (inactive)
[7]
  EC50: 25 µM (active)
Exodeoxyribonuclease V
  IC50: > 39.5 µM (inactive)
Vero [8]
  CC50: > 25 µM (active)
[9]
  EC50: 27 µM (active)
Vero [10]
  IC50: 21.2 µM (active)
[5]
  IC50: 83.6 µM (inactive)

## C[C@H](NS(=O)(=O)c1ccc(Cl)c(Cl)c1)C(=O)OCc1cc(=O)n2cc(Br)ccc2n1
Escherichia coli [11]
  AC50: 67.4 µM (active)

## Cc1cc(C(=O)NNC(=S)NC(=O)/C=C/c2ccccc2Cl)[nH]n1
[6]
  IC50: > 122 µM (inactive)
[12]
  IC50: 6.96 µM (active)
Bcl-2-related protein A1
  IC50: > 20 µM (inactive)
[13]
  IC50: 5.24 µM (active)

## C[C@]12CC[C@H](O)C[C@@H]1CC[C@@H]1[C@@H]2CC[C@]2(C)[C@@H](OC(=O)[C@H](N)CCCCN)CC[C@@H]12
[14]
  AC50: 1.27 µM (active)
Bcl-2-related protein A1
  IC50: > 20 µM (inactive)
[13]
  IC50: 11.8 µM (active)

## COc1ccc(C(C#N)(CCC#N)CCC#N)cc1OC
[15]
  IC50: > 83.3 µM (inactive)
[16]
  IC50: > 79.4 µM (inactive)
[17]
  IC50: > 109 µM (inactive)
[18]
  IC50: > 79.4 µM (inactive)
[19]
  IC50: > 79.4 µM (inactive)

## Cn1c(=O)cc(SCC(=O)N2CCCC2)c2ccc(Cl)cc21
[20]
  EC50: > 79.4 µM (not active)
[21]
  EC50: > 79.4 µM (not active)
[22]
  EC50: > 79.4 µM (inactive)

## CCOC1(C)OCC(=O)[C@]2(CCC3C4CCC5=CC(=O)C=CC5(C)C4C(=O)CC32C)O1 (some centres not stated)
[16]
  IC50: > 79.4 µM (inactive)
[18]
  IC50: > 79.4 µM (inactive)
[19]
  IC50: > 79.4 µM (inactive)

## Cc1ccc2nc(-c3ccc(-c4cccc(Cl)c4)cc3)c(NCc3ccccc3)n2c1
INS1
  AC50: 2.29 µM (active)
[2]
  AC50: 24 µM (active)
[3]
  AC50: 4.96 µM (active)
[23]
  IC50: 0.848 µM (active)

## Fc1ccc(CSc2nnc(-c3ccccn3)n2Cc2ccco2)c(C(F)(F)F)c1
[24]
  EC50: > 64 µM (inactive)
[25]
  EC50: 8.27 µM (active)
Mu-type opioid receptor
  EC50: > 32 µM (inactive)
[26]
  EC50: 5.39 µM (active)

## O=C(O)CN1C(=O)CC(Cc2ccc(Cl)cc2)C1=O (configuration not stated)
Escherichia coli [27]
  AC50: 106 µM (active)
